Data from ChEMBL document CHEMBL5038679, “Fluoroalkylation of Dextromethorphan Improves CNS Exposure and Metabolic Stability” (ACS Med Chem Lett, 2022).
Converted amounts (≈) assume the structure as drawn.

Experiments:
[1] = Aqueous solubility of compound in universal buffer at pH 7.4 at 100 uM incubated for 1.5 hrs under shaking condition by LC-MS/MS analysis; format: physicochemical
[2] = Aqueous solubility of compound in universal buffer at pH 3 at 100 uM incubated for 1.5 hrs under shaking condition by LC-MS/MS analysis; format: physicochemical
[3] = Stability in human liver microsomes assessed as half life at 10 uM measured upto 120 mins by LC-MS/MS analysis; format: ADME, Microsome
[4] = Cmax in Sprague-Dawley rat plasma at 2.5 mg/kg, po measured after 24 hrs by LC-MS/MS analysis; format: ADME, organism-based; set-up: route oral, dose 2.5 mg/kg, time 24 hrs
[5] = Cmax in Sprague-Dawley rat brain at 2.5 mg/kg, po measured after 24 hrs by LC-MS/MS analysis; format: ADME, organism-based; set-up: route oral, time 24 hrs, dose 2.5 mg/kg
[6] = AUC in Sprague-Dawley rat plasma at 2.5 mg/kg, po measured after 24 hrs by LC-MS/MS analysis; format: ADME, organism-based; set-up: route oral, time 24 hrs, dose 2.5 mg/kg
[7] = AUC in Sprague-Dawley rat brain at 2.5 mg/kg, po measured after 24 hrs by LC-MS/MS analysis; format: ADME, organism-based; set-up: route oral, time 24 hrs, dose 2.5 mg/kg
[8] = Protein binding in Sprague-Dawley rat plasma assessed as unbound fraction at 20 uM by NMR analysis; format: ADME, cell-free
[9] = Protein binding in Sprague-Dawley rat brain plasma assessed as unbound fraction at 5 uM measured after 4 hrs by LC-MS analysis; format: ADME, tissue-based
[10] = Unbound brain-to-plasma concentration ratio in Sprague-Dawley rat; format: ADME, cell-free; conditions: read-out: K(p,uu,brain)
[11] = Volume of distribution in Sprague-Dawley rat at 2.5 mg/kg, po measured after 24 hrs by LC-MS/MS analysis; format: ADME, organism-based; conditions: in vivo
[12] = Clearance in Sprague-Dawley rat plasma at 2.5 mg/kg, po measured after 24 hrs by LC-MS/MS analysis; format: ADME, organism-based
[13] = Half life in Sprague-Dawley rat plasma at 2.5 mg/kg, po measured after 24 hrs by LC-MS/MS analysis; format: ADME, organism-based
[14] = Half life in Sprague-Dawley rat brain at 2.5 mg/kg, po measured after 24 hrs by LC-MS/MS analysis; format: ADME, organism-based
in vitro [15] = conditions: human, liver microsomes
[16] = biological target: T1, Sodium-dependent noradrenaline transporter (Homo sapiens, UniProt P23975); assay: Displacement of […] from NET (unknown origin) expressed in HEK cell membrane incubated for 2 hrs by liquid scintillation counter analysis
T1 sequence (P23975 whole entry): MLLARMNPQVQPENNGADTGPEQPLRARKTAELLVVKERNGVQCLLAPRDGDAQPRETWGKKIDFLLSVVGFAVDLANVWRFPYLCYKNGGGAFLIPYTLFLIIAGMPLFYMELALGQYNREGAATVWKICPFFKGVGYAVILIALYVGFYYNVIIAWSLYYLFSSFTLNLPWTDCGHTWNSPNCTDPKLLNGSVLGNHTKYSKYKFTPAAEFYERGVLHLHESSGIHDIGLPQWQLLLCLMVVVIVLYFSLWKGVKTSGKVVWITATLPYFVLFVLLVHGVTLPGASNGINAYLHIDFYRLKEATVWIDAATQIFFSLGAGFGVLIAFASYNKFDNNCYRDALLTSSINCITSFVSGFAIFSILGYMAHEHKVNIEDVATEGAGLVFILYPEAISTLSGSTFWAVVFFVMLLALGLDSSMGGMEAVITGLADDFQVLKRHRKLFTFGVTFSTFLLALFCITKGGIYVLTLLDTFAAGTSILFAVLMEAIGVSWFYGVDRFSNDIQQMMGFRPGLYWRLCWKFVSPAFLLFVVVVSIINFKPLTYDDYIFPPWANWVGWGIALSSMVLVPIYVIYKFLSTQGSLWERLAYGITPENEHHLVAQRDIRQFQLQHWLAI

[17] = biological target: Glutamate [NMDA] receptor; assay: Displacement of […] from NMDA receptor (unknown origin) expressed in HEK cell membrane incubated for 2 hrs by liquid scintillation counter analysis
[18] = biological target: Sigma intracellular receptor 2 (Homo sapiens, UniProt Q5BJF2); assay: Displacement of […] from sigma-2 receptor (unknown origin) expressed in HEK cell membrane incubated for 2 hrs by liquid scintillation counter analysis
Sequence of Sigma intracellular receptor 2 (Q5BJF2 whole entry): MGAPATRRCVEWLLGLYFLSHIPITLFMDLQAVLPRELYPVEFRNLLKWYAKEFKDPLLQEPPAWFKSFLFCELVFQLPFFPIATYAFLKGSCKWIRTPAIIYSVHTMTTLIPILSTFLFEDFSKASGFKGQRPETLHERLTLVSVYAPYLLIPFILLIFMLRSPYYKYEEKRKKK

[19] = biological target: Sigma non-opioid intracellular receptor 1 (Homo sapiens, UniProt Q99720); assay: Displacement of […] from sigma-1 receptor (unknown origin) expressed in HEK cell membrane incubated for 2 hrs by liquid scintillation counter analysis
Sequence of Sigma non-opioid intracellular receptor 1 (Q99720 whole entry): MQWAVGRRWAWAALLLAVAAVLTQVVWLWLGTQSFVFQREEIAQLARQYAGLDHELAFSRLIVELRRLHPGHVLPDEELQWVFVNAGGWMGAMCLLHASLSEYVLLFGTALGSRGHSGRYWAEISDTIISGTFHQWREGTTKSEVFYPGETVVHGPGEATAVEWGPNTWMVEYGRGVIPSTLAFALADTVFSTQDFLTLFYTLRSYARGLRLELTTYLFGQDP

[20] = biological target: T1, Sodium-dependent noradrenaline transporter; assay: Inhibition of human NET expressed in human HEK293 cells assessed as inhibition of substrate transport measured after 1 hr by flourescence based plate reader assay; format: cell-based
hERG (KCNH2) = hERG (KCNH2) (Homo sapiens, UniProt Q12809); assay: Inhibition of human ERG at 10 uM measured after 15 mins by plate reader method relative to control; format: toxicity
Sequence of hERG (KCNH2) (Q12809 whole entry): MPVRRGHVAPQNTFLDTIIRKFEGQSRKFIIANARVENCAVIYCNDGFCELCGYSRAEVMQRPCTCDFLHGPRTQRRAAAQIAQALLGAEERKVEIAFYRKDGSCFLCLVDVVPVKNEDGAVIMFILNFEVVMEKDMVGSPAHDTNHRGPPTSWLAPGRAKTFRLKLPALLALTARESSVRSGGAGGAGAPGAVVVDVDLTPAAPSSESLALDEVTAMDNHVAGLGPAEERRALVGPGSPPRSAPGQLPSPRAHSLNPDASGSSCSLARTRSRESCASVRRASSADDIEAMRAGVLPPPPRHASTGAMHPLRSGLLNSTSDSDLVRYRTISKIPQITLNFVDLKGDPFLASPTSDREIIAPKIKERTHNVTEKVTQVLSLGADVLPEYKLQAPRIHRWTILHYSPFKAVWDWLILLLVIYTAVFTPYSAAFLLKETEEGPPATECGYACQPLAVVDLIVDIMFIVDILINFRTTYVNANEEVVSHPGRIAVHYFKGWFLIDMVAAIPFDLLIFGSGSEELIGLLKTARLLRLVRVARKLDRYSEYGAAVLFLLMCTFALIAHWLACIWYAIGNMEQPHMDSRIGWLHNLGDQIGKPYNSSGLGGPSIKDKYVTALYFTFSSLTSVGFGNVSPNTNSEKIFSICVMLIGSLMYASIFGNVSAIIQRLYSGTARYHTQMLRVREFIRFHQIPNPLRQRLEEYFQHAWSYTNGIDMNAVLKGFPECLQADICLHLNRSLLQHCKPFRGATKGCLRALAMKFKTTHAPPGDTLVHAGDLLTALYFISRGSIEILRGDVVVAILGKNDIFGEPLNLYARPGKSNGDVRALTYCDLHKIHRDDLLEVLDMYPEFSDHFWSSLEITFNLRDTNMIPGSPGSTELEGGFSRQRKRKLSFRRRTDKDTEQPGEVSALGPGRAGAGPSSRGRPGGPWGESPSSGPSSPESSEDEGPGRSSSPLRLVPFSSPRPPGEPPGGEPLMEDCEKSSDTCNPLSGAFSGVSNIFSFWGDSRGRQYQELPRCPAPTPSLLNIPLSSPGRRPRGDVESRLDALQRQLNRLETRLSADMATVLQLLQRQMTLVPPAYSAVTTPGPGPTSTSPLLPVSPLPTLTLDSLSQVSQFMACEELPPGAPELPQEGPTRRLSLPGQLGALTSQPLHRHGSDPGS

in vitro [21] = conditions: dog, MDCK-MDR1
Description: Apparent permeability in dog MDCK-MDR1 cells from apical to basal side measured after 30 to 120 mins by LC-MS analysis

in vitro [22] = conditions: dog, MDCK-MDR1; remark: listed apart in the source
Description: Apparent permeability in dog MDCK-MDR1 cells from basal to apical side measured after 30 to 120 mins by LC-MS analysis

[23] = biological target: T2, Sodium-dependent serotonin transporter (Homo sapiens, UniProt P31645); assay: biochemical; format: cell-based, HEK
T2 sequence (P31645 whole entry): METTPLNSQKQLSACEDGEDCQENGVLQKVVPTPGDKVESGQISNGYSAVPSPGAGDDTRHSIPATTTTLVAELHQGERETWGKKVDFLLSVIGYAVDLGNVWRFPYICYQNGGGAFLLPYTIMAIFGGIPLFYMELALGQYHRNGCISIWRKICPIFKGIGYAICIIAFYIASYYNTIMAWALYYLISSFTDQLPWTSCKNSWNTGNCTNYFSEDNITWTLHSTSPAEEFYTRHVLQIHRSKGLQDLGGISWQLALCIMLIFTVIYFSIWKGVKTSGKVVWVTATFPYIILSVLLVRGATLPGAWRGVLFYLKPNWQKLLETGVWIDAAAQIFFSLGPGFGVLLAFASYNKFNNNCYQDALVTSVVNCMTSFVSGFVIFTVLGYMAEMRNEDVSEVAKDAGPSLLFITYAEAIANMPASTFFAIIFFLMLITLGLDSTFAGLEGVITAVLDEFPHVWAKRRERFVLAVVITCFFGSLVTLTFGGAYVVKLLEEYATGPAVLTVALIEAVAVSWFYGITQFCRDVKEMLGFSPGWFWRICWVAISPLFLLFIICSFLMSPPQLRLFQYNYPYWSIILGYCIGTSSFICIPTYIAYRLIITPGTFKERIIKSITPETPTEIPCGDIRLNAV
Description: Displacement of [3H]-Citalopram from SERT receptor (unknown origin) expressed in HEK cell membrane incubated for 2 hrs by liquid scintillation counter analysis

[24] = biological target: T2, Sodium-dependent serotonin transporter; format: cell-based, HEK293
[25] = Efflux ratio of apparent permeability across basolateral to apical side over apical to basolateral side in dog MDCK-MDR1 cells measured after 30 to 120 mins by LC-MS analysis; format: ADME, cell-based, Canis lupus familiaris; conditions: time 30-120 min

Row | SMILES | solubility at 1.5 h, 100 µM [1] [µM] | solubility at 1.5 h, 100 µM [2] [µM] | half-life at 10 µM [3] [h] | Cmax [4] [ng/mL] | Cmax [5] [ng/mL] | AUC at 24 h [6] [ng·h/mL] | AUC at 24 h [7] [ng·h/mL] | Kp uu at 20 µM [10] | Vd [11] [L/kg] | CL/F [12] [mL/min/kg] | half-life [13] [h] | half-life [14] [h] | CLint scaled at 2 h, 10 µM (in vitro [15]) [mL/min/kg] | Ki [16] [nM] | Ki [17] [nM] | Ki [18] [nM] | Ki [19] [nM] | IC50 [20] [nM] | inhibition at 0.25 h, 10 µM (hERG (KCNH2)) [%] | Papp A→B (in vitro [21]) [×10⁻⁶ cm/s] | also measured
1 | [2H]C([2H])([2H])N1CC[C@@]23CCCC[C@@H]2[C@@H]1Cc1ccc(C(F)F)cc13 | 94 (≈ 27.7 µg/mL) | 70 (≈ 20.6 µg/mL) | 2.03 | 66 | 854 | 353 | 4060 | 4.1 | 31 | 135 | 2.65 | 1.62 | 10.2 | – | – | – | – | – | – | – | Cp(f) [8]: 28.8%; Cp(f) [9]: 9%
2 | COc1ccc2c(c1)[C@@]13CCCC[C@@H]1[C@@H](C2)N(C)CC3 | 94 (≈ 25.5 µg/mL) | 88 (≈ 23.9 µg/mL) | 3.42 | 9.7 | 214 | 21.3 | 389 | 27.9 | 589 | 2990 | 2 | 2.07 | 6.09 | > 10000 | 624 | 862 | 73 | > 10000 | 0.1 | 1.48 | Cp(f) [8]: 19.3%; Cp(f) [9]: 21.6%; Papp B→A (in vitro [22]): 1.21 ×10⁻⁶ cm/s
3 | CN1CC[C@@]23CCCC[C@@H]2[C@@H]1Cc1ccc(OC(F)F)cc13 | > 100 | 76 (≈ 23.4 µg/mL) | 4.22 | – | – | – | – | – | – | – | – | – | 4.94 | > 10000 | > 10000 | 1280 | 568 | > 10000 | 34.9 | 1.28 | Ki [23]: 186 nM; IC50 [24]: 55 nM; efflux ratio [25]: 0.77; Papp B→A (in vitro [22]): 0.979 ×10⁻⁶ cm/s
4 | CN1CC[C@@]23CCCC[C@@H]2[C@@H]1Cc1ccc(C(F)F)cc13 | > 100 | > 100 | 4.05 | 27 | 674 | 144 | 4930 | 7.8 | 85 | 288 | 3.33 | 2.57 | 5.13 | 35 | > 10000 | 353 | 145 | 944 | 12 | 1.35 | Ki [23]: 51 nM; IC50 [24]: 24 nM; efflux ratio [25]: 0.81; Papp B→A (in vitro [22]): 1.1 ×10⁻⁶ cm/s
5 | [2H]C([2H])([2H])N1CC[C@@]23CCCC[C@@H]2[C@@H]1Cc1ccc(OC(F)(F)F)cc13 | 100 (≈ 32.8 µg/mL) | 86 (≈ 28.2 µg/mL) | 2.67 | 32 | 725 | 205 | 5810 | 1.2 | 43 | 202 | 2.45 | 3.03 | 7.81 | – | – | – | – | – | – | – | Cp(f) [8]: 40.2%; Cp(f) [9]: 2.1%
6 | CN1CC[C@@]23CCCC[C@@H]2[C@@H]1Cc1ccc(C(F)(F)F)cc13 | > 100 | 77 (≈ 23.8 µg/mL) | 3.2 | – | – | – | – | – | – | – | – | – | 6.48 | > 10000 | > 10000 | 885 | 813 | 1040 | 5.1 | 1.22 | Ki [23]: 125 nM; IC50 [24]: 60 nM; efflux ratio [25]: 0.75; Papp B→A (in vitro [22]): 0.915 ×10⁻⁶ cm/s
7 | CN1CC[C@@]23CCCC[C@@H]2[C@@H]1Cc1ccc(OC(F)(F)F)cc13 | > 100 | 60 (≈ 19.5 µg/mL) | 3.67 | 12 | 756 | 131 | 9460 | 3.3 | 77 | 318 | 2.8 | 3.18 | 5.66 | > 10000 | > 10000 | 833 | 757 | > 10000 | 6.1 | 0.989 | Ki [23]: 48 nM; IC50 [24]: 31 nM; efflux ratio [25]: 1.13; Papp B→A (in vitro [22]): 1.12 ×10⁻⁶ cm/s
